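The compound was tested at five concentrations on cells cultured in 96-well plates, with a 48-hour exposure period. GI50 marks 50% less growth. TGI is the concentration that stops growth completely.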
Experiments:
Assay in all cases: growth of human tumour cells (NCI), 48 h
MCF7 breast = test system: MCF7 breast
NCI/ADR-RES ovarian = test system: NCI/ADR-RES ovarian
HOP-92 NSCLC = test system: HOP-92 NSCLC
K-562 leukemia = test system: K-562 leukemia
CAKI-1 renal = test system: CAKI-1 renal
MALME-3M melanoma = test system: MALME-3M melanoma
OVCAR-4 ovarian = test system: OVCAR-4 ovarian
HL-60(TB) leukemia = test system: HL-60(TB) leukemia
SW-620 colon = test system: SW-620 colon
SF-268 CNS = test system: SF-268 CNS
RXF 393 renal = test system: RXF 393 renal
SF-295 CNS = test system: SF-295 CNS
OVCAR-3 ovarian = test system: OVCAR-3 ovarian
MDA-MB-231 breast = test system: MDA-MB-231 breast
MOLT-4 leukemia = test system: MOLT-4 leukemia
OVCAR-5 ovarian = test system: OVCAR-5 ovarian
NCI-H226 lung = test system: NCI-H226 lung
COLO 205 colon = test system: COLO 205 colon
A549 NSCLC = test system: A549 NSCLC
DU-145 prostate = test system: DU-145 prostate
SNB-75 CNS = test system: SNB-75 CNS
NCI-H23 lung = test system: NCI-H23 lung
A498 renal = test system: A498 renal
OVCAR-8 ovarian = test system: OVCAR-8 ovarian
SK-OV-3 ovarian = test system: SK-OV-3 ovarian
TK-10 renal = test system: TK-10 renal
IGROV1 ovarian = test system: IGROV1 ovarian
SN12C renal = test system: SN12C renal
CCRF-CEM leukemia = test system: CCRF-CEM leukemia
HOP-62 NSCLC = test system: HOP-62 NSCLC
PC-3 prostate = test system: PC-3 prostate
NCI-H460 lung = test system: NCI-H460 lung
786-0 renal = test system: 786-0 renal
UACC-257 melanoma = test system: UACC-257 melanoma
SK-MEL-2 melanoma = test system: SK-MEL-2 melanoma
HS 578T breast = test system: HS 578T breast

COc1ccc(C(=O)c2cc(OC)c(OC)c(OC)c2)cc1/C=C/C(=O)c1ccc2c(c1)OCO2
GI50 (MCF7 breast): 0.381 µM
TGI (MCF7 breast): > 100 µM
GI50 (NCI/ADR-RES ovarian): 1.46 µM
TGI (NCI/ADR-RES ovarian): 15.2 µM
GI50 (HOP-92 NSCLC): 12 µM
TGI (HOP-92 NSCLC): 35.4 µM
GI50 (K-562 leukemia): 0.377 µM
TGI (K-562 leukemia): > 100 µM
GI50 (CAKI-1 renal): 2.56 µM
TGI (CAKI-1 renal): > 100 µM
GI50 (MALME-3M melanoma): 2.38 µM
TGI (MALME-3M melanoma): 6.61 µM
GI50 (OVCAR-4 ovarian): 5.05 µM
TGI (OVCAR-4 ovarian): > 100 µM
GI50 (HL-60(TB) leukemia): 2.16 µM
TGI (HL-60(TB) leukemia): > 100 µM
GI50 (SW-620 colon): 0.396 µM
TGI (SW-620 colon): 3.77 µM
GI50 (SF-268 CNS): 2.95 µM
TGI (SF-268 CNS): > 100 µM
GI50 (RXF 393 renal): 1.94 µM
TGI (RXF 393 renal): 4.21 µM
GI50 (SF-295 CNS): 3.43 µM
TGI (SF-295 CNS): 17.2 µM
GI50 (OVCAR-3 ovarian): 1.96 µM
TGI (OVCAR-3 ovarian): 7.24 µM
GI50 (MDA-MB-231 breast): 2.35 µM
TGI (MDA-MB-231 breast): 54.3 µM
GI50 (MOLT-4 leukemia): 1.61 µM
TGI (MOLT-4 leukemia): > 100 µM
GI50 (OVCAR-5 ovarian): 2.64 µM
TGI (OVCAR-5 ovarian): 8.19 µM
GI50 (NCI-H226 lung): 2.23 µM
TGI (NCI-H226 lung): 6.32 µM
GI50 (COLO 205 colon): 3.51 µM
TGI (COLO 205 colon): > 100 µM
GI50 (A549 NSCLC): 4.39 µM
TGI (A549 NSCLC): > 100 µM
GI50 (DU-145 prostate): 4.25 µM
TGI (DU-145 prostate): > 100 µM
GI50 (SNB-75 CNS): 3.11 µM
TGI (SNB-75 CNS): 15.6 µM
GI50 (NCI-H23 lung): 2.67 µM
TGI (NCI-H23 lung): 8.22 µM
GI50 (A498 renal): 2.43 µM
TGI (A498 renal): 16.7 µM
GI50 (OVCAR-8 ovarian): 2.32 µM
TGI (OVCAR-8 ovarian): 13.1 µM
GI50 (SK-OV-3 ovarian): 5.7 µM
TGI (SK-OV-3 ovarian): 41.1 µM
GI50 (TK-10 renal): 3.92 µM
TGI (TK-10 renal): 14.7 µM
GI50 (IGROV1 ovarian): 3.52 µM
TGI (IGROV1 ovarian): 14.1 µM
GI50 (SN12C renal): 3.07 µM
TGI (SN12C renal): > 100 µM
GI50 (CCRF-CEM leukemia): 0.583 µM
TGI (CCRF-CEM leukemia): > 100 µM
GI50 (HOP-62 NSCLC): 4.4 µM
TGI (HOP-62 NSCLC): 19.5 µM
GI50 (PC-3 prostate): 4.1 µM
TGI (PC-3 prostate): > 100 µM
GI50 (NCI-H460 lung): 3.09 µM
TGI (NCI-H460 lung): > 100 µM
GI50 (786-0 renal): 2.28 µM
TGI (786-0 renal): 5.84 µM
GI50 (UACC-257 melanoma): 3.55 µM
TGI (UACC-257 melanoma): > 100 µM
GI50 (SK-MEL-2 melanoma): 2.81 µM
TGI (SK-MEL-2 melanoma): 7.47 µM
GI50 (HS 578T breast): 4.56 µM
TGI (HS 578T breast): > 100 µM

Source: PubChem BioAssay (NCI)
